Assay results: patent US8188001B2, “Fungicidal mixtures” (BASF Aktiengesellschaft, priority 2002, dated 2012)

Columns and labels:
[1] = system: Erysiphe [syn. Blumeria] graminis form a specialis. tritici; experiment: Activity against mildew of wheat, protective spray on potted wheat seedlings; type: in vivo; details: wheat cv. Kanzler, 7 days
Description: (§1) The active compounds, separately or together, were formulated as a 10% emulsion in a mixture of 85% by weight of cyclohexanone and 5% by weight of emulsifier, and diluted with water to the desired concentration.
(§2) Evaluation was carried out by determining the infected leaf areas in percent. These percentages were converted into efficacies. The efficacy (W) was calculated as follows using Abbot's formula:
(§3) [formula] • α corresponds to the fungal infection of the treated plants in % and • β corresponds to the fungal infection of the untreated (control) plants in %.
(§4) An efficacy of 0 means that the infection level of the treated plants corresponds to that of the untreated control plants; an efficacy of 100 means that the treated plants were not infected.
(§5) The expected efficacies of the mixtures of the active compounds were determined using Colby's formula [R. S. Colby, Weeds 15, 20-22 (1967)] and compared with the observed efficacies. Colby formula: E=x+y−xy/100 • E expected efficacy, expressed in % of the untreated control, when using the mixture of the active compounds A and B at the concentrations a and b • x efficacy, expressed in % of the untreated control, when using active compound A at a concentration of a • y efficacy, expressed in % of the untreated control, when using active compound B at a concentration of b.
Use example 1: Activity against mildew of wheat caused by Erysiphe [syn. Blumeria] graminis form a specialis. tritici
Leaves of wheat seedlings of the cultivar “Kanzler”, grown in pots, were sprayed to runoff point with an aqueous preparation of active compound which had been prepared from a stock solution comprising 10% of active compound, 85% of cyclohexanone and 5% of emulsifier, and 24 hours after the spray coating had dried on, the leaves were dusted with spores of mildew of wheat (Erysiphe [syn. Blumeria] graminis form a specialis. tritici). The test plants were then placed in a greenhouse at 20-24° C. and 60-90% relative atmospheric humidity. After 7 days, the extent of the mildew development was determined visually in % infection of the entire leaf area.
The visually determined values for the percentage of diseased leaf areas were converted into efficacies in % of the untreated control. An efficacy of 0 means the same disease level as in the untreated control, an efficacy of 100 means a disease level of 0%. The expected efficacies for the combinations of active compounds were determined using Colby's formula, mentioned above, and compared with the observed efficacies.

Sphaerotheca fuliginea = experiment: Protective activity against mildew of cucumber, spray on potted cucumber seedlings; type: in vivo; details: cucumber cv. chinese snake, 7 days
Description: as §1, §2, §3, §4, §5
Use example 2: Protective activity against mildew of cucumber caused by Sphaerotheca fuliginea
Leaves of cucumber seedlings of the cultivar “chinese snake”, grown in pots, were, at the cotyledon stage, sprayed to runoff point with an aqueous preparation of active compound which had been prepared from a stock solution comprising 10% of active compound, 85% of cyclohexanone and 5% of emulsifier. 20 hours after the spray coating had dried on, the plants were inoculated with an aqueous spore suspension of mildew of cucumber (Sphaerotheca fuliginea). The plants were then cultivated in a greenhouse at 20-24° C. and 60-80% relative atmospheric humidity for 7 days. The extent of the mildew development was then determined visually in % infection of the cotyledon area. The visually determined values for the percentage of diseased leaf areas were converted into efficacies in % of the untreated control. An efficacy of 0 means the same disease level as in the untreated control, an efficacy of 100 means a disease level of 0%. The expected efficacies for the combinations of active compounds were determined using Colby's formula, mentioned above, and compared with the observed efficacies.

With `N#Cc1sc2c(=O)c3ccccc3c(=O)c=2sc1C#N` [Compound VIII, dithianon] the “Efficacy in % of the untreated control” value ([1]; 1 ppm in the spray liquor) was 0% and the “Efficacy in % of the untreated control” value ([1]; 4 ppm in the spray liquor) was 0%.
With `OC(Cc1ccccc1Cl)(Cn1nc[nH]c1=S)C1(Cl)CC1` (stereo not shown) [Compound I, 2-[2-(1-chlorocyclopropyl)-3-(2-chlorophenyl)-2-hydroxypropyl]-2,4-dihydro-[1,2,4]-triazole-3-thione] the “Efficacy in % of the untreated control” value (Sphaerotheca fuliginea; 0.25 ppm in the spray liquor) was 56%, the “Efficacy in % of the untreated control” value (Sphaerotheca fuliginea; 1 ppm in the spray liquor) was 78% and the “Efficacy in % of the untreated control” value ([1]; 0.25 ppm in the spray liquor) was 0%. The “Efficacy in % of the untreated control” value ([1]; 1 ppm in the spray liquor) was 0% and the “Efficacy in % of the untreated control” value ([1]; 4 ppm in the spray liquor) was 42%.
For `O=C(Nc1ccccc1-c1ccc(Cl)cc1)c1cccnc1Cl` [Compound II, boscalid], the “Efficacy in % of the untreated control” value (Sphaerotheca fuliginea; 0.06 ppm in the spray liquor) was 0%, the “Efficacy in % of the untreated control” value (Sphaerotheca fuliginea; 0.25 ppm in the spray liquor) was 0% and the “Efficacy in % of the untreated control” value (Sphaerotheca fuliginea; 4 ppm in the spray liquor) was 78%. The “Efficacy in % of the untreated control” value ([1]; 0.06 ppm in the spray liquor) was 0%, the “Efficacy in % of the untreated control” value ([1]; 0.25 ppm in the spray liquor) was 0% and the “Efficacy in % of the untreated control” value ([1]; 1 ppm in the spray liquor) was 0%. The “Efficacy in % of the untreated control” value ([1]; 4 ppm in the spray liquor) was 0%.
For `O=C(Cc1ccccc1)N/C(=N\OCC1CC1)c1c(OC(F)F)ccc(F)c1F` [Compound VI], the “Efficacy in % of the untreated control” value (Sphaerotheca fuliginea; 0.015 ppm in the spray liquor) was 0%, the “Efficacy in % of the untreated control” value (Sphaerotheca fuliginea; 0.06 ppm in the spray liquor) was 33% and the “Efficacy in % of the untreated control” value ([1]; 0.06 ppm in the spray liquor) was 0%. For the same compound, the “Efficacy in % of the untreated control” value ([1]; 0.25 ppm in the spray liquor) was 53%.
In the case of `Cc1ccc(-c2c(Cl)nc(C#N)n2S(=O)(=O)N(C)C)cc1` [Compound XI, cyazofamid], the “Efficacy in % of the untreated control” value ([1]; 0.06 ppm in the spray liquor) is reported as 0%, the “Efficacy in % of the untreated control” value ([1]; 0.25 ppm in the spray liquor) is reported as 22% and the “Efficacy in % of the untreated control” value ([1]; 1 ppm in the spray liquor) is reported as 22%.
In the case of `COc1cc(C)c(C(=O)c2c(OC)ccc(Br)c2C)c(OC)c1OC` [Compound IV, metrafenone], the “Efficacy in % of the untreated control” value (Sphaerotheca fuliginea; 0.015 ppm in the spray liquor) is reported as 0%, the “Efficacy in % of the untreated control” value (Sphaerotheca fuliginea; 0.06 ppm in the spray liquor) is reported as 0% and the “Efficacy in % of the untreated control” value ([1]; 0.015 ppm in the spray liquor) is reported as 30%. The “Efficacy in % of the untreated control” value ([1]; 0.06 ppm in the spray liquor) was 53%.
